Values of other authors as cited in patent publication EP4406531A1, “DOSAGE FORM FOR INTRA-ARTICULAR INJECTION […] AN […] IN THE TREATMENT OF CRYSTAL-AND NON-CRYSTAL […] IN[…]” (PK MED, priority 2023, dated 2024).

Settings: literature (Niel et al. 2006)

COc1cc2c(c(OC)c1OC)-c1ccc(OC)c(=O)cc1[C@@H](NC(C)=O)CC2 [colchicine, N-[(7S)-1,2,3,10-tetramethoxy-9-oxo-6,7-dihydro-5H-benzo[a]heptalen-7-yl]acetamide]
lethal dose: 0.8 mg/kg | toxicity limit: 0.1 mg/kg
